US9193744B2, “Heterocyclic nuclear hormone receptor modulators” (AbbVie Inc., priority 2012, dated 2015)
Read-outs that look alike come from different tables or passages of the source.

Columns and labels:
OCN = assay: MG-63 Cell Assay to Measure Bone Markers (inhibition of Vitamin K/Vitamin D-induced OCN); type: cell-based; settings: Homo sapiens, MG63 cells
Description: MG-63 Cell Assay to Measure Bone Markers
MG-63 cells were cultured in culture media containing ascorbic acid (DMEM/F12 supplemented with 10% FBS, 1% HEPES, 100 U/mL-100 μg/mL Pen-Strep, and 100 μg/mL of ascorbic acid) for, minimally, 1 week before study. MG-63 cells were seeded (4E4 cells/well) in 96-well assay plates in culture medium (200 μL/well.) After overnight culture in an incubator set to 37° C., 4.9% CO2, and 90% humidity, media was removed from adherent cells by aspiration and replaced with 100 μL/well assay medium, DMEM/F12 supplemented with 5% Charcoal Stripped Serum, 1% HEPES, 100 U/mL-100 μg/mL Pen-Strep, and 100 μg/mL of ascorbic acid. Compounds were prepared with DMSO and serial diluted (1:3, 1:4, or 1:5) with DMSO in dilution plate(s) to give 10 dilution points for each compound tested. Further dilution (1:250) of compound was made into assay medium and 50 μL/well diluted drug or DMSO/media control was applied to cells. After a 1 h pre-incubation in a temperature, CO2, and humidity controlled incubator, set to 37° C., 50 μL/well of 40 nM Vitamin K and 400 nM Vitamin D that were diluted in assay media were applied to plates. Assay plates, with a final volume of 200 μL/well and final concentrations of 0.1% DMSO, 10 nM Vitamin K, and 100 nM Vitamin D, were returned to incubator for overnight culture. Next, plates were spun at 183 g (1000 rpm in Beckman/Coulter Allegra 6KR centrifuge) for 10 min. Cell-free supenatant (150 μL/well) was collected and OCN was measured by MSD kit, following protocol of manufacturer, and using MSD SECTOR Imager 6000 instrument. Potency of drug to inhibit OCN was determined using the percent reduction of measured OCN in wells with drug compared to control wells without drug, and relative to (100% inhibition) positive control sample of 10 μM prednisolone. Results were represented as IC50 and Emax values. To verify that viable cell numbers were similar across plate(s), and not confounding compound IC50 data interpretation, the remaining 50 μL/well of cells and media (after removal of supernatant) were used to run Cell Titer-Glo Assay per directions of manufacturer.

IL-6 = assay: A549 Cell Assay to Measure Inflammation Markers (inhibition of IL-1β-induced IL-6); type: cell-based; settings: A549 cells, read-out: A549 cell assay
Summary of the method: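 A549 cells pre-incubated 1 h with compound (10-point dilution, 0.1% DMSO final) in charcoal-stripped serum medium, then stimulated 4 h with 1 ng/mL IL-1β at 37° C. Supernatant IL-6 measured by MSD immunoassay; IC50 and Emax relative to 1 μM prednisolone as 100% inhibition; viability checked by CellTiter-Glo.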

[1] = molecular target: T1, Glucocorticoid Receptor (GR) (Homo sapiens, UniProt P04150); assay: GR Fluorescence Polarization Assay (PolarScreen Glucocorticoid Receptor Competitor Assay, Red); settings: fluorescence polarization binding ranges
T1 construct: purchased Invitrogen P2893
T1 sequence (P04150 1-777): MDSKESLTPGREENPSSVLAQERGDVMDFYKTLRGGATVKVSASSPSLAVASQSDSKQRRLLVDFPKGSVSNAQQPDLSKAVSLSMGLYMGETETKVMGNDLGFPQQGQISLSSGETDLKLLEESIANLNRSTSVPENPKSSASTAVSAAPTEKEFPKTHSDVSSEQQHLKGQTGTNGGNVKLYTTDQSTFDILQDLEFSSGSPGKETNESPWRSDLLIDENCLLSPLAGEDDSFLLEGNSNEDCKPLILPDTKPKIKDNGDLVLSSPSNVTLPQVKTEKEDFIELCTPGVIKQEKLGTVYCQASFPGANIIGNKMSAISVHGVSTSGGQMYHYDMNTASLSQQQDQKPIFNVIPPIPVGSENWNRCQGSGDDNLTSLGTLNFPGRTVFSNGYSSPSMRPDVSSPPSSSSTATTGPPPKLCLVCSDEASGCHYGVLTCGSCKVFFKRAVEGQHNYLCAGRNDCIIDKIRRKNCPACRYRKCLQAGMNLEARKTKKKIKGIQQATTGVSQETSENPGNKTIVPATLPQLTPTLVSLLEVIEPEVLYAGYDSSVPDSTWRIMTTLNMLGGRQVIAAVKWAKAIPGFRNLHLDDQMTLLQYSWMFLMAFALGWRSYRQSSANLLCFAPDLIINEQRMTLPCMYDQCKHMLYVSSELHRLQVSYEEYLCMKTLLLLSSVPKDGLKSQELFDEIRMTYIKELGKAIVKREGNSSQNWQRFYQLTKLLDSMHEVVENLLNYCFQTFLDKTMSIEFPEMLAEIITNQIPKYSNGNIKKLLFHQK
Summary of the method: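 Compound displacement of a red-labelled glucocorticoid from GR, read as fluorescence polarization. Tracer, receptor and 1:4-serially diluted compound were left together overnight at 4° C in the kit assay buffer.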

IC50 (OCN) [nM] | IC50 (IL-6; Homo sapiens) [nM] | IC50 [1] [nM] | IC50 (IL-6) [nM] | SMILES
< 100 | 100 to 1000 | < 100 |  | CCC[C@]1(O)CC[C@@]2(CC)c3cc4cnn(-c5ccc(F)cc5)c4cc3CCC[C@@H]2C1 (racemic) [Example 4, (3S,4aR,12bR)-12b-Ethyl-9-(4-fluoro-phenyl)-3-propyl-1,2,3,4,4a,5,6,7,9,12b-decahydro-9,10-diaza-benzo[3,4]cyclohepta[1,2-f]inden-3-ol; compound with (3R,4aS,12bS)-12b-ethyl-9-(4-fluoro-phenyl)-3-propyl-1,2,3,4,4a,5,6,7,9,12b-decahydro-9,10-diaza-benzo[3,4]cyclohepta[1,2-f]inden-3-ol]
> 10000 | 100 to 1000 | < 100 |  | CCOC[C@]1(O)CC[C@@]2(CC)c3cc4cnn(-c5ccc(F)cc5)c4cc3CCC[C@@H]2C1 (single isomer, unassigned) [Example 9]
> 10000 | < 100 | < 100 |  | CC[C@@]12CC[C@@](O)(COC)C[C@H]1CCCc1cc3c(cnn3-c3ccc(F)cc3)cc12 (single isomer, unassigned) [Example 7]
 | < 100 | < 100 |  | CC[C@@]12CC[C@](O)(COC)C[C@@H]1CCCc1cc3c(cnn3-c3ccncc3)cc12 (single isomer, unassigned) [Example 123]
 |  | < 100 | < 100 | C[C@]1(O)CC[C@]2(CC3CC3)c3cc4cnn(-c5ccc(F)cc5)c4cc3CCC[C@@H]2C1 [Example 58]
 | 100 to 1000 | < 100 |  | CC[C@]12C[C@](C)(O)[C@@](O)(C(F)(F)F)C[C@@H]1CCCc1cc3c(cnn3-c3ccc(F)cc3)cc12 (single isomer, unassigned) [Example 118]
 | < 100 | < 100 |  | CC[C@@]12C[C@@H](O)[C@](O)(C(F)(F)F)C[C@@H]1CCCc1cc3c(cnn3-c3ccc(F)cc3)cc12 (single isomer, unassigned) [Example 98]
 | < 100 | < 100 |  | C[C@]1(O)CC[C@]2(Cc3ccccn3)c3cc4cnn(-c5ccc(F)cc5)c4cc3CCC[C@@H]2C1 (single isomer, unassigned) [Example 16]
 | < 100 | < 100 |  | CC[C@@]12C[C@H](O)[C@@](O)(C(F)(F)F)C[C@H]1CCCc1cc3c(cnn3-c3ccc(F)cc3)cc12 [Example 108, (2S,3R,4aR,12bR)-12b-Ethyl-9-(4-fluorophenyl)-3-(trifluoromethyl)-1,2,3,4,4a,5,6,7,9,12b-decahydrobenzo[6,7]cyclohepta[1,2-f]indazole-2,3-diol]
 |  | < 100 | < 100 | CC[C@@]12CC[C@](O)(COC)C[C@@H]1CCCc1cc3c(cnn3-c3ccccn3)cc12 [Example 47]
 | < 100 | < 100 |  | OC[C@@]12CC[C@](O)(C(F)(F)F)C[C@H]1CCCc1cc3c(cnn3-c3ccc(F)cc3)cc12 [Example 78, (3R,4aR,12bS)-9-(4-fluorophenyl)-12b-(hydroxymethyl)-3-(trifluoromethyl)-1,2,3,4,4a,5,6,7,9,12b-decahydrobenzo[6,7]cyclohepta[1,2-f]indazol-3-ol]
 |  | 100 to 1000 | < 100 | C[C@]1(O)CC[C@]2(Cc3ccccn3)c3cc4cnn(-c5ccncc5)c4cc3CCC[C@@H]2C1 [Example 31]
 |  | < 100 | < 100 | CCOC[C@]1(O)CC[C@]2(Cc3ccccn3)c3cc4cnn(-c5ccc(F)cc5)c4cc3CCC[C@@H]2C1 [Example 33]
 | < 100 | < 100 |  | CC[C@@]12CC[C@@](C)(O)C[C@@H]1CCOc1cc3c(cnn3-c3ccnc(C)c3)cc12 [Example 143]
 | 100 to 1000 | 100 to 1000 |  | CC[C@@]12CC(=O)[C@](O)(C(F)(F)F)C[C@H]1CCCc1cc3c(cnn3-c3ccc(F)cc3)cc12 (single isomer, unassigned) [Example 115]
 | < 100 | < 100 |  | CS(=O)(=O)NC[C@@]12CC[C@](O)(C(F)(F)F)C[C@H]1CCCc1cc3c(cnn3-c3ccc(F)cc3)cc12 [Example 74, N-(((3R,4aR,12bS)-9-(4-fluorophenyl)-3-hydroxy-3-(trifluoromethyl)-1,2,3,4,4a,5,6,7,9,12b-decahydrobenzo[6,7]cyclohepta[1,2-f]indazol-12b-yl)methyl)methanesulfonamide]
 | < 100 | < 100 |  | CC[C@]12CC[C@@](OCC(N)=O)(C(F)(F)F)C[C@@H]1CCCc1cc3c(cnn3-c3ccc(F)cc3)cc12 [Example 171, 2-(((3S,4aS,12bS)-12b-Ethyl-9-(4-fluorophenyl)-3-(trifluoromethyl)-1,2,3,4,4a,5,6,7,9,12b-decahydrobenzo[6,7]cyclohepta[1,2-f]indazol-3-yl)oxy)acetamide]
 | < 100 | < 100 |  | CC[C@@]12CC[C@](O)(CC#N)C[C@@H]1CCOc1cc3c(cnn3-c3ccnc(C)c3)cc12 [Example 145]
 | < 100 | < 100 |  | CC[C@@]12CC[C@](O)(C(F)(F)F)C[C@H]1CCOc1cc3c(cnn3-c3ccc(F)cc3)cc12 (single isomer, unassigned) [Example 146]
 | 100 to 1000 | 100 to 1000 |  | CC[C@]12CC(=O)[C@@](O)(C(F)(F)F)C[C@@H]1CCCc1cc3c(cnn3-c3ccc(F)cc3)cc12 (single isomer, unassigned) [Example 116]
 | < 100 | < 100 |  | CC[C@@]12C[C@@H](O)[C@](O)(C(F)(F)F)C[C@H]1CCCc1cc3c(cnn3-c3ccc(F)cc3)cc12 (single isomer, unassigned) [Example 119]
 |  | < 100 | 1000 to 10000 | CC[C@@]12CC[C@](O)(COC)C[C@@H]1CCOc1cc3c(cnn3-c3ccnc(OC)c3)cc12 [Example 138]
 |  | < 100 | < 100 | N#CC[C@]1(O)CC[C@]2(Cc3ncccn3)c3cc4cnn(-c5ccc(F)cc5)c4nc3CCC[C@@H]2C1 [Example 160]
 | 1000 to 10000 | < 100 |  | O=C(NC1CC1)[C@]12CC[C@@](O)(C(F)(F)F)C[C@@H]1CCCc1cc3c(cnn3-c3ccc(F)cc3)cc12 (single isomer, unassigned) [Example 87]
 | < 100 | < 100 |  | CC[C@]12C[C@@H](O)[C@@](O)(C(F)(F)F)C[C@@H]1CCCc1cc3c(cnn3-c3ccc(F)cc3)cc12 (single isomer, unassigned) [Example 122]
 | < 100 | < 100 |  | CC[C@@]12C[C@H](O)[C@](O)(C(F)(F)F)C[C@H]1CCCc1cc3c(cnn3-c3ccc(F)cc3)cc12 (single isomer, unassigned) [Example 121]
 |  | < 100 | > 10000 | CC[C@]12CC[C@@](O)(COC)C[C@H]1CCCc1cc3c(cnn3-c3cccnc3)cc12 [Example 43]
 |  | 100 to 1000 | 100 to 1000 | CC[C@]1(O)CC[C@]2(CC)c3cc4cnn(-c5ccc(F)cc5)c4cc3CCC[C@H]2C1 [Example 114]

SMILES | IC50 (OCN) [nM] | IC50 (IL-6; Homo sapiens) [nM] | IC50 [1] [nM] | IC50 (IL-6) [nM]
C[C@@]1(O)CC[C@@]2(CC3CC3)c3cc4cnn(-c5ccc(F)cc5)c4cc3CCC[C@H]2C1 [Example 57] |  |  | < 100 | < 100
